The values below come from ChEMBL document CHEMBL1667860, “Acridone alkaloids as potent inhibitors of cathepsin V” (Bioorg Med Chem, 2011).

Assay [1] deals with T1, Cathepsin L2 (Homo sapiens, UniProt O60911).
T1 sequence (O60911 whole entry): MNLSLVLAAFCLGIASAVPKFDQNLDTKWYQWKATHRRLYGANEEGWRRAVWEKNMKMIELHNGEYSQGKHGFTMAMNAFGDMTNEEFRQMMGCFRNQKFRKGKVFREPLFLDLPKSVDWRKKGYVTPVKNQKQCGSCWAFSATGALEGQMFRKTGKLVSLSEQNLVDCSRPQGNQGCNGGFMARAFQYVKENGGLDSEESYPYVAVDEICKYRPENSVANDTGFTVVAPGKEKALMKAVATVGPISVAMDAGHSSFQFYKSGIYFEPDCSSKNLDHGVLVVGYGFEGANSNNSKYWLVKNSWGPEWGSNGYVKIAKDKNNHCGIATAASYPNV
Briefly: Inhibition of human recombinant cathepsin V expressed in Pichia pastoris.

The target of assay [2] is T1, Cathepsin L2. The assay is described as follows: Inhibition of human recombinant cathepsin V expressed in Pichia pastoris by Lineweaver-Burk double-reciprocal plots.

One may read the IC50 as the concentration that gives 50% inhibition. `Cn1c2c(O)cccc2c(=O)c2c(O)cc3c(c21)C=CC(C)(C)O3`: the IC50 at Cathepsin L2 [1] was 48000 nM.

Usually Ki stands for a dissociation constant, usually derived from enzyme kinetics or from competition with a known ligand. With `COc1c(O)c2c(c3c(=O)c4cccc(O)c4n(C)c13)OC(C)(C)C(O)C2` (stereo not given), the IC50 at Cathepsin L2 [1] worked out at 2800 nM. The Ki on Cathepsin L2 [2] is 1700 nM.

As to `CC(C)=CCc1c(O)cc2c(c1O)c(=O)c1c(CC=C(C)C)ccc(O)c1n2C`, the IC50 at Cathepsin L2 [1] was found to be 3900 nM. Also, the Ki at Cathepsin L2 [2] came to 1200 nM.

Consider `CC(C)=CCc1c(O)cc(O)c2c(=O)c3cccc(O)c3n(C)c12` [GLYCOCITRINE-I], for which the concentration for half-maximal inhibition (IC50) at Cathepsin L2 [1] was 25000 nM. In addition, the Ki at Cathepsin L2 [2] stood at 10000 nM.

In the case of `COc1c2c(c(O)c3c(=O)c4cccc(O)c4n(C)c13)CC(C(C)(C)O)O2` (stereo not given), the IC50 at Cathepsin L2 [1] stood at 5200 nM. For the same compound, the Ki on Cathepsin L2 [2] turned out to be 4400 nM.

In the case of `COc1c(OC)c(OC)c2c(c1O)c(=O)c1cccc(O)c1n2C` [CITIBRASINE], at Cathepsin L2 [1], the IC50 was 1200 nM. Moreover, the Ki at Cathepsin L2 [2] stood at 200 nM.

`COc1c2c(c(O)c3c(=O)c4cccc(O)c4n(C)c13)C=CC(C)(C)O2` [PYRANOFOLINE]: the IC50 on Cathepsin L2 [1] worked out at 44000 nM.

Turning to `COc1c(O)c(CC=C(C)C)c(O)c2c(=O)c3c(CC=C(C)C)ccc(O)c3n(C)c12`, at Cathepsin L2 [1], the IC50 was determined as 2500 nM. Besides, the Ki at Cathepsin L2 [2] is 500 nM.

For `COc1c(O)c(CC=C(C)C)c(O)c2c(=O)c3cccc(O)c3n(C)c12` [GLYCOCITRINE-IV], the IC50 at Cathepsin L2 [1] worked out at 2200 nM. In addition, on Cathepsin L2 [2], the Ki came to 1100 nM.

As for `COc1c(O)cc(O)c2c(=O)c3cccc(O)c3n(C)c12` [CITRUSININE-II], the IC50 at Cathepsin L2 [1] was 10000 nM. On Cathepsin L2 [2], the inhibition constant Ki is 4200 nM.

Regarding `COc1cc(O)c2c(=O)c3cccc(O)c3n(C)c2c1OC` [CITRUSININE-I], the IC50 at Cathepsin L2 [1] was determined as 2200 nM. For the same compound, the Ki at Cathepsin L2 [2] stood at 1000 nM.
